Test results as given in ChEMBL document CHEMBL5126628, “Aspersterols A-D, Ergostane-Type Sterols with an Unusual Unsaturated Side Chain from the Deep-Sea-Derived Fungus Aspergillus unguis” (J Nat Prod, 2022).
Where a name gives a salt, the structure may show the parent alone.

What was measured:
HCT-15 = assay: Growth inhibition of human HCT-15 cells by SRB assay; format: functional
NUGC-3 = assay: Growth inhibition of human NUGC-3 cells by SRB assay; format: functional
NCI-H23 = assay: Growth inhibition of human NCI-H23 cells by SRB assay; format: functional
ACHN = assay: Growth inhibition of human ACHN cells by SRB assay; format: functional
PC-3 = assay: Growth inhibition of human PC-3 cells by SRB assay; format: functional
MDA-MB-231 = assay: Growth inhibition of human MDA-MB-231 cells by SRB assay; format: functional
RAW264.7 [1] = assay: Antiinflammatory activity in mouse RAW264.7 cells assessed as reduction in LPS-induced nitric oxide production by griess assay; format: functional, cell-based
RAW264.7 [2] = assay: Antiinflammatory activity in mouse RAW264.7 cells assessed as reduction in LPS-induced IL6 production […]; format: functional, cell-based; conditions: DDE = dose-dependent effect
RAW264.7 [3] = assay: Antiinflammatory activity in mouse RAW264.7 cells assessed as reduction in LPS-induced nitrite production by griess assay; format: functional, cell-based; conditions: DDE = dose-dependent effect
RAW264.7 [4] = assay: Antiinflammatory activity in mouse RAW264.7 cells assessed as reduction in LPS-induced IL6 mRNA expression […]; format: functional, cell-based; conditions: DDE = dose-dependent effect
RAW264.7 [5] = assay: Antiinflammatory activity in mouse RAW264.7 cells assessed as reduction in LPS-induced iNOS mRNA expression […]; format: functional, cell-based; conditions: DDE = dose-dependent effect

| SMILES | GI50 (HCT-15) | GI50 (NUGC-3) | GI50 (NCI-H23) | GI50 (ACHN) | GI50 (PC-3) | GI50 (MDA-MB-231) | IC50 (RAW264.7 [1]) | inhibition (RAW264.7 [2]) | inhibition (RAW264.7 [3]) | inhibition (RAW264.7 [4]) | inhibition (RAW264.7 [5]) |
| --- | --- | --- | --- | --- | --- | --- | --- | --- | --- | --- | --- |
| CC(/C=C/[C@H](C)C(C)C)=C1\[C@H](O)C[C@H]2C3=CC(=O)[C@@]4(O)C[C@@H](O)CC[C@]4(C)[C@H]3CC[C@]12C | > 30 µM | > 30 µM | > 30 µM | > 30 µM | > 30 µM | > 30 µM | 14.5 µM |  |  |  |  |
| CC(/C=C/[C@H](C)C(C)C)=C1\CC[C@H]2C3=CC(=O)[C@@]4(O)C[C@@H](O)CC[C@]4(C)[C@H]3CC[C@]12C | 13.2 µM | 11.5 µM | 10.3 µM | 12.5 µM | 13.8 µM | 13.5 µM | 11.6 µM | Dde | Dde | Dde | Dde |
| CC(/C=C/[C@H](C)C(C)C)=C1\[C@H](O)C[C@H]2c3cc4c(c(C)c3CC[C@]12C)CC[C@H](O)C4 | 4.5 µM | 4.2 µM | 4.4 µM | 4.3 µM | 3.9 µM | 3.4 µM |  |  |  |  |  |
| CC(/C=C/[C@H](C)C(C)C)=C1\CC[C@H]2C3=CC(=O)[C@@]4(O)C[C@@H](O)CC[C@]4(C)[C@@]3(O)CC[C@]12C | > 30 µM | > 30 µM | > 30 µM | > 30 µM | > 30 µM | > 30 µM | 19.5 µM |  |  |  |  |
| COc1cccc2c1C(=O)c1c(O)c3c(c(O)c1C2=O)C[C@@](O)(C(=O)CO)C[C@@H]3O[C@H]1C[C@H](N)[C@H](O)[C@H](C)O1 [DOXORUBICIN HYDROCHLORIDE] | 0.09 µM | 0.08 µM | 0.08 µM | 0.07 µM | 0.09 µM | 0.08 µM |  |  |  |  |  |
